The values below come from ChEMBL document CHEMBL1131562, “Synthesis of L-enantiomers of 4'-thioarabinofuranosyl pyrimidine nucleosides” (1998).

Converted amounts (≈) assume the structure as drawn. The source made the active and inactive calls. The calls are words filed in the database; no cut-off is given here.

The species entered for one test is Homo sapiens. Briefly: Cytotoxicity against human T-cell leukemia, CCRF-HSB-2, at concentration up to 100 ug/mL; NA means not active. The test is classed as functional.
For test [1], the system named is Human alphaherpesvirus 2. Put plainly: Antiviral activity against herpes simplex virus type-2 at concentration up to 100 ug/mL; NA means not active. The test is classed as functional, organism-based.
In test [2] the test system is Human alphaherpesvirus 1. Briefly: Antiviral activity against herpes simplex virus type-1 at concentration up to 100 ug/mL; NA means not active. The test is classed as functional, organism-based.
Test [3] has as its system Human alphaherpesvirus 1. Put plainly: Effective dose required for antiviral activity against herpes simplex virus type-1. Type of test: functional. The note with it: read-out: ED50 (the source's name).
Test [4] deals with Human alphaherpesvirus 2. Put plainly: Effective dose required for antiviral activity against herpes simplex virus type-2. The test is classed as functional. The note with it: read-out: ED50 (the source's name).

Take `Cc1cn([C@H]2S[C@@H](CO)[C@H](O)[C@H]2O)c(=O)[nH]c1=O`: the result in the test filed under Homo sapiens, in the test with Human alphaherpesvirus 2 [1] and in the test with Human alphaherpesvirus 1 [2] was inactive.
With `Cc1cn([C@@H]2S[C@@H](CO)[C@H](O)[C@H]2O)c(=O)[nH]c1=O`, the outcome in the test listed under Homo sapiens, in the test on Human alphaherpesvirus 2 [1] and in the test on Human alphaherpesvirus 1 [2] was inactive.
For the compound `Nc1ccn([C@H]2S[C@@H](CO)[C@H](O)[C@H]2O)c(=O)n1`, the outcome in the test filed under Homo sapiens, in the test on Human alphaherpesvirus 2 [1] and in the test on Human alphaherpesvirus 1 [2] was inactive.
On to `Nc1ccn([C@@H]2S[C@@H](CO)[C@H](O)[C@H]2O)c(=O)n1`, for which the EC50 in the test with Human alphaherpesvirus 1 [3] and in the test with Human alphaherpesvirus 2 [4] was 10 µg/mL (≈ 38.6 µM) throughout. The outcome in the test filed under Homo sapiens was inactive.
